Experimental data from patent publication US4245106A, “Process for the preparation of 1-alkyl-3-aryl-4-pyrazolecarboxylates” (Monsanto Company, priority 1979, dated 1981).

What was measured:
Type in all cases: in vivo
Barnyard grass [1] = experiment: pre-emergent herbicidal activity test
Summary of the method: (§1)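 Greenhouse pan test, soil-incorporated pre-emergence treatment: a known amount of active ingredient in solvent or as wettable powder was blended into the covering soil. Damage to each species was graded on a rating code.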

Bromus tectorum [2] = experiment: pre-emergent herbicidal activity test
Summary of the method: as §1

Canada Thistle [3] = experiment: pre-emergent herbicidal activity test
Summary of the method: as §1

Cocklebur [4] = experiment: pre-emergent herbicidal activity test
Summary of the method: as §1

Johnsongrass [5] = experiment: pre-emergent herbicidal activity test
Summary of the method: as §1

Lambsquarter [6] = experiment: pre-emergent herbicidal activity test
Summary of the method: as §1

Morningglory [7] = experiment: pre-emergent herbicidal activity test
Summary of the method: as §1

Nutsedge [8] = experiment: pre-emergent herbicidal activity test
Summary of the method: as §1

Quackgrass [9] = experiment: pre-emergent herbicidal activity test
Summary of the method: as §1

Smartweed [10] = experiment: pre-emergent herbicidal activity test
Summary of the method: as §1

Velvetleaf [11] = experiment: pre-emergent herbicidal activity test
Summary of the method: as §1

Barnyard grass [12] = experiment: post-emergent herbicidal activity test
Summary of the method: (§2)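 Young plants of two or three weeks are treated post-emergence with a sprayed active ingredient formulation containing surfactant. Observations follow in the greenhouse about four weeks later, unless otherwise noted.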

Bromus tectorum [13] = experiment: post-emergent herbicidal activity test
Summary of the method: as §2

Canada Thistle [14] = experiment: post-emergent herbicidal activity test
Summary of the method: as §2

Cocklebur [15] = experiment: post-emergent herbicidal activity test
Summary of the method: as §2

Johnsongrass [16] = experiment: post-emergent herbicidal activity test
Summary of the method: as §2

Lambsquarter [17] = experiment: post-emergent herbicidal activity test
Summary of the method: as §2

Morningglory [18] = experiment: post-emergent herbicidal activity test
Summary of the method: as §2

Nutsedge [19] = experiment: post-emergent herbicidal activity test
Summary of the method: as §2

Quackgrass [20] = experiment: post-emergent herbicidal activity test
Summary of the method: as §2

Smartweed [21] = experiment: post-emergent herbicidal activity test
Summary of the method: as §2

Velvetleaf [22] = experiment: post-emergent herbicidal activity test
Summary of the method: as §2

[23] = *11.2 Kg/Ha, observed approximately 14 days after treatment
[24] = 11.2 Kg/Ha, approximately 28 days after seeding and treating
[25] = 11.2 Kg/Ha, approximately four weeks later
Also: ranges in brackets are in %.

Compound: Cn1cc(C(=O)OCCOc2ccccc2)c(-c2cccc(C(F)(F)F)c2)n1 [Example 22]
- Pre-Emergent herbicidal rating, K Barnyard grass (Barnyard grass [1]; [23]): 0 (0-24)
- Pre-Emergent herbicidal rating, J Bromus tectorum (Bromus tectorum [2]; [23]): 0 (0-24)
- Pre-Emergent herbicidal rating, A Canada Thistle (Canada Thistle [3]; [23]): 3 (75-100)
- Pre-Emergent herbicidal rating, B Cocklebur (Cocklebur [4]; [23]): 0 (0-24)
- Pre-Emergent herbicidal rating, I Johnsongrass (Johnsongrass [5]; [23]): 0 (0-24)
- Pre-Emergent herbicidal rating, E Lambsquarter (Lambsquarter [6]; [23]): 3 (75-100)
- Pre-Emergent herbicidal rating, D Morningglory (Morningglory [7]; [23]): 1 (25-49)
- Pre-Emergent herbicidal rating, G Nutsedge (Nutsedge [8]; [23]): 0 (0-24)
- Pre-Emergent herbicidal rating, H Quackgrass (Quackgrass [9]; [23]): 0 (0-24)
- Pre-Emergent herbicidal rating, F Smartweed (Smartweed [10]; [23]): 0 (0-24)
- Pre-Emergent herbicidal rating, C Velvetleaf (Velvetleaf [11]; [23]): 0 (0-24)
- Post-Emergent herbicidal rating, K Barnyard grass (Barnyard grass [12]; [23]): 0 (0-24)
- Post-Emergent herbicidal rating, J Bromus tectorum (Bromus tectorum [13]; [23]): 0 (0-24)
- Post-Emergent herbicidal rating, A Canada Thistle (Canada Thistle [14]; [23]): 1 (25-49)
- Post-Emergent herbicidal rating, B Cocklebur (Cocklebur [15]; [23]): 0 (0-24)
- Post-Emergent herbicidal rating, I Johnsongrass (Johnsongrass [16]; [23]): 0 (0-24)
- Post-Emergent herbicidal rating, E Lambsquarter (Lambsquarter [17]; [23]): 0 (0-24)
- Post-Emergent herbicidal rating, D Morningglory (Morningglory [18]; [23]): 0 (0-24)
- Post-Emergent herbicidal rating, G Nutsedge (Nutsedge [19]; [23]): 0 (0-24)
- Post-Emergent herbicidal rating, H Quackgrass (Quackgrass [20]; [23]): 0 (0-24)
- Post-Emergent herbicidal rating, F Smartweed (Smartweed [21]; [23]): 0 (0-24)
- Post-Emergent herbicidal rating, C Velvetleaf (Velvetleaf [22]; [23]): 0 (0-24)

Compound: CCSCCOC(=O)c1cn(C)nc1-c1cccc(C(F)(F)F)c1 [Example 23]
- Pre-Emergent herbicidal rating, K Barnyard grass (Barnyard grass [1]; [23]): 1 (25-49)
- Pre-Emergent herbicidal rating, J Bromus tectorum (Bromus tectorum [2]; [23]): 1 (25-49)
- Pre-Emergent herbicidal rating, A Canada Thistle (Canada Thistle [3]; [23]): 0 (0-24)
- Pre-Emergent herbicidal rating, B Cocklebur (Cocklebur [4]; [23]): 0 (0-24)
- Pre-Emergent herbicidal rating, I Johnsongrass (Johnsongrass [5]; [23]): 0 (0-24)
- Pre-Emergent herbicidal rating, E Lambsquarter (Lambsquarter [6]; [23]): 3 (75-100)
- Pre-Emergent herbicidal rating, D Morningglory (Morningglory [7]; [23]): 1 (25-49)
- Pre-Emergent herbicidal rating, G Nutsedge (Nutsedge [8]; [23]): 0 (0-24)
- Pre-Emergent herbicidal rating, H Quackgrass (Quackgrass [9]; [23]): 0 (0-24)
- Pre-Emergent herbicidal rating, F Smartweed (Smartweed [10]; [23]): 1 (25-49)
- Pre-Emergent herbicidal rating, C Velvetleaf (Velvetleaf [11]; [23]): 1 (25-49)
- Post-Emergent herbicidal rating, K Barnyard grass (Barnyard grass [12]; [23]): 1 (25-49)
- Post-Emergent herbicidal rating, J Bromus tectorum (Bromus tectorum [13]; [23]): 0 (0-24)
- Post-Emergent herbicidal rating, A Canada Thistle (Canada Thistle [14]; [23]): 1 (25-49)
- Post-Emergent herbicidal rating, B Cocklebur (Cocklebur [15]; [23]): 1 (25-49)
- Post-Emergent herbicidal rating, I Johnsongrass (Johnsongrass [16]; [23]): 0 (0-24)
- Post-Emergent herbicidal rating, E Lambsquarter (Lambsquarter [17]; [23]): 2 (50-74)
- Post-Emergent herbicidal rating, D Morningglory (Morningglory [18]; [23]): 1 (25-49)
- Post-Emergent herbicidal rating, G Nutsedge (Nutsedge [19]; [23]): 0 (0-24)
- Post-Emergent herbicidal rating, H Quackgrass (Quackgrass [20]; [23]): 1 (25-49)
- Post-Emergent herbicidal rating, F Smartweed (Smartweed [21]; [23]): 1 (25-49)
- Post-Emergent herbicidal rating, C Velvetleaf (Velvetleaf [22]; [23]): 1 (25-49)

Compound: CCCCOC(=O)c1cn(C)nc1-c1cccc(C(F)(F)F)c1 [Example 30]
- Pre-Emergent herbicidal rating, K Barnyard grass (Barnyard grass [1]; [24]): 3 (75-100)
- Pre-Emergent herbicidal rating, J Bromus tectorum (Bromus tectorum [2]; [24]): 2 (50-74)
- Pre-Emergent herbicidal rating, A Canada Thistle (Canada Thistle [3]; [24]): 2 (50-74)
- Pre-Emergent herbicidal rating, B Cocklebur (Cocklebur [4]; [24]): 0 (0-24)
- Pre-Emergent herbicidal rating, I Johnsongrass (Johnsongrass [5]; [24]): 0 (0-24)
- Pre-Emergent herbicidal rating, E Lambsquarter (Lambsquarter [6]; [24]): 3 (75-100)
- Pre-Emergent herbicidal rating, D Morningglory (Morningglory [7]; [24]): 0 (0-24)
- Pre-Emergent herbicidal rating, G Nutsedge (Nutsedge [8]; [24]): 0 (0-24)
- Pre-Emergent herbicidal rating, H Quackgrass (Quackgrass [9]; [24]): 0 (0-24)
- Pre-Emergent herbicidal rating, F Smartweed (Smartweed [10]; [24]): 3 (75-100)
- Pre-Emergent herbicidal rating, C Velvetleaf (Velvetleaf [11]; [24]): 1 (25-49)
- Post-Emergent herbicidal rating, K Barnyard grass (Barnyard grass [12]; [25]): 1 (25-49)
- Post-Emergent herbicidal rating, J Bromus tectorum (Bromus tectorum [13]; [25]): 1 (25-49)
- Post-Emergent herbicidal rating, A Canada Thistle (Canada Thistle [14]; [25]): 0 (0-24)
- Post-Emergent herbicidal rating, B Cocklebur (Cocklebur [15]; [25]): 1 (25-49)
- Post-Emergent herbicidal rating, I Johnsongrass (Johnsongrass [16]; [25]): 1 (25-49)
- Post-Emergent herbicidal rating, E Lambsquarter (Lambsquarter [17]; [25]): 3 (75-99)
- Post-Emergent herbicidal rating, D Morningglory (Morningglory [18]; [25]): 1 (25-49)
- Post-Emergent herbicidal rating, G Nutsedge (Nutsedge [19]; [25]): 0 (0-24)
- Post-Emergent herbicidal rating, H Quackgrass (Quackgrass [20]; [25]): 0 (0-24)
- Post-Emergent herbicidal rating, F Smartweed (Smartweed [21]; [25]): 0 (0-24)
- Post-Emergent herbicidal rating, C Velvetleaf (Velvetleaf [22]; [25]): 1 (25-49)

Compound: CCOC(=O)c1cn(C)nc1-c1ccc(OC)cc1 [Example 31]
- Pre-Emergent herbicidal rating, K Barnyard grass (Barnyard grass [1]; [23]): 0 (0-24)
- Pre-Emergent herbicidal rating, J Bromus tectorum (Bromus tectorum [2]; [23]): 0 (0-24)
- Pre-Emergent herbicidal rating, A Canada Thistle (Canada Thistle [3]; [23]): 0 (0-24)
- Pre-Emergent herbicidal rating, B Cocklebur (Cocklebur [4]; [23]): 0 (0-24)
- Pre-Emergent herbicidal rating, I Johnsongrass (Johnsongrass [5]; [23]): 0 (0-24)
- Pre-Emergent herbicidal rating, E Lambsquarter (Lambsquarter [6]; [23]): 0 (0-24)
- Pre-Emergent herbicidal rating, D Morningglory (Morningglory [7]; [23]): 0 (0-24)
- Pre-Emergent herbicidal rating, G Nutsedge (Nutsedge [8]; [23]): 0 (0-24)
- Pre-Emergent herbicidal rating, H Quackgrass (Quackgrass [9]; [23]): 0 (0-24)
- Pre-Emergent herbicidal rating, F Smartweed (Smartweed [10]; [23]): 0 (0-24)
- Pre-Emergent herbicidal rating, C Velvetleaf (Velvetleaf [11]; [23]): 0 (0-24)
- Post-Emergent herbicidal rating, K Barnyard grass (Barnyard grass [12]; [25]): 1 (25-49)
- Post-Emergent herbicidal rating, J Bromus tectorum (Bromus tectorum [13]; [25]): 0 (0-24)
- Post-Emergent herbicidal rating, A Canada Thistle (Canada Thistle [14]; [25]): 0 (0-24)
- Post-Emergent herbicidal rating, B Cocklebur (Cocklebur [15]; [25]): 0 (0-24)
- Post-Emergent herbicidal rating, I Johnsongrass (Johnsongrass [16]; [25]): 0 (0-24)
- Post-Emergent herbicidal rating, E Lambsquarter (Lambsquarter [17]; [25]): 4 (100)
- Post-Emergent herbicidal rating, D Morningglory (Morningglory [18]; [25]): 1 (25-49)
- Post-Emergent herbicidal rating, G Nutsedge (Nutsedge [19]; [25]): 0 (0-24)
- Post-Emergent herbicidal rating, H Quackgrass (Quackgrass [20]; [25]): 0 (0-24)
- Post-Emergent herbicidal rating, F Smartweed (Smartweed [21]; [25]): 4 (100)
- Post-Emergent herbicidal rating, C Velvetleaf (Velvetleaf [22]; [25]): 1 (25-49)
